How the values were obtained:
Type in all cases: functional
SR = experiment: Cytotoxicity against human SR cells assessed as cell growth at 0.01 uM after 48 hrs by sulforhodamine B assay relative to control; conditions: read-out: Activity
SK-OV-3 [1] = experiment: Cytotoxicity against human SKOV3 cells assessed as cell growth at 100 uM after 48 hrs by sulforhodamine B assay relative to control; conditions: SK-OV-3, 48 h, read-out: Activity
COLO 205 = experiment: Cytotoxicity against human COLO205 cells assessed as cell growth at 0.1 uM after 48 hrs by sulforhodamine B assay relative to control; conditions: COLO 205, 48 h, read-out: Activity
HT-29 = experiment: Cytotoxicity against human HT-29 cells assessed as cell growth at 10 uM after 48 hrs by sulforhodamine B assay relative to control; conditions: HT-29, 48 h, read-out: Activity
UO-31 = experiment: Cytotoxicity against human UO31 cells assessed as cell growth at 1 uM after 48 hrs by sulforhodamine B assay relative to control; conditions: UO-31, 48 h, read-out: Activity
UACC-62 [2] = experiment: Cytotoxicity against human UACC62 cells assessed as cell growth at 1 uM after 48 hrs by sulforhodamine B assay relative to control; conditions: UACC-62, 48 h, read-out: Activity
SN12C = experiment: Cytotoxicity against human SN12C cells assessed as cell growth at 10 uM after 48 hrs by sulforhodamine B assay relative to control; conditions: read-out: Activity
MDA-MB-435 [3] = experiment: Cytotoxicity against human MDA-MB-435 cells assessed as cell growth at 10 uM after 48 hrs by sulforhodamine B assay relative to control; conditions: MDA-MB-435, 48 h, read-out: Activity
OVCAR-4 [4] = experiment: Cytotoxicity against human OVCAR4 cells assessed as cell growth at 1 uM after 48 hrs by sulforhodamine B assay relative to control; conditions: OVCAR-4, 48 h, read-out: Activity
NCI-H23 = experiment: Cytotoxicity against human NCI-H23 cells assessed as cell growth at 10 uM after 48 hrs by sulforhodamine B assay relative to control; conditions: NCI-H23, 48 h, read-out: Activity
OVCAR-3 [5] = experiment: Cytotoxicity against human OVCAR3 cells assessed as cell growth at 100 uM after 48 hrs by sulforhodamine B assay relative to control; conditions: OVCAR-3, 48 h, read-out: Activity
OVCAR-8 [6] = experiment: Cytotoxicity against human OVCAR8 cells assessed as cell growth at 0.01 uM after 48 hrs by sulforhodamine B assay relative to control; conditions: OVCAR-8, 48 h, read-out: Activity
MDA-MB-231 = experiment: Cytotoxicity against human MDA-MB-231 cells assessed as cell growth at 0.1 uM after 48 hrs by sulforhodamine B assay relative to control; conditions: MDA-MB-231, 48 h, read-out: Activity
UACC-62 [7] = experiment: Cytotoxicity against human UACC62 cells assessed as cell growth at 10 uM after 48 hrs by sulforhodamine B assay relative to control; conditions: UACC-62, 48 h, read-out: Activity
OVCAR-3 [8] = experiment: Cytotoxicity against human OVCAR3 cells assessed as growth inhibition after 48 hrs by sulforhodamine B assay; conditions: OVCAR-3, 48 h
SNB-19 = experiment: Cytotoxicity against human SNB19 cells assessed as cell growth at 0.1 uM after 48 hrs by sulforhodamine B assay relative to control; conditions: SNB-19, 48 h, read-out: Activity
K562 = experiment: Cytotoxicity against human K562 cells assessed as growth inhibition after 48 hrs by sulforhodamine B assay; conditions: K562, 48 h
Hs-578T [9] = experiment: Cytotoxicity against human Hs 578T cells assessed as cell growth at 0.01 uM after 48 hrs by sulforhodamine B assay relative to control; conditions: read-out: Activity
HCC 2998 = experiment: Cytotoxicity against human HCC2998 cells assessed as cell growth at 100 uM after 48 hrs by sulforhodamine B assay relative to control; conditions: HCC 2998, 48 h, read-out: Activity
BT-549 = experiment: Cytotoxicity against human BT549 cells assessed as cell growth at 100 uM after 48 hrs by sulforhodamine B assay relative to control; conditions: BT-549, 48 h, read-out: Activity
Hs-578T [10] = experiment: Cytotoxicity against human Hs 578T cells assessed as growth inhibition after 48 hrs by sulforhodamine B assay
TK-10 = experiment: Cytotoxicity against human TK10 cells assessed as cell growth at 1 uM after 48 hrs by sulforhodamine B assay relative to control; conditions: TK-10, 48 h, read-out: Activity
OVCAR-4 [11] = experiment: Cytotoxicity against human OVCAR4 cells assessed as cell growth at 0.1 uM after 48 hrs by sulforhodamine B assay relative to control; conditions: OVCAR-4, 48 h, read-out: Activity
NCI-H460 = experiment: Cytotoxicity against human NCI-H460 cells assessed as cell growth at 10 uM after 48 hrs by sulforhodamine B assay relative to control; conditions: NCI-H460, 48 h, read-out: Activity
M14 = experiment: Cytotoxicity against human M14 cells assessed as cell growth at 10 uM after 48 hrs by sulforhodamine B assay relative to control; conditions: M14, 48 h, read-out: Activity
SK-OV-3 [12] = experiment: Cytotoxicity against human SKOV3 cells assessed as cell growth at 0.01 uM after 48 hrs by sulforhodamine B assay relative to control; conditions: SK-OV-3, 48 h, read-out: Activity
OVCAR-8 [13] = experiment: Cytotoxicity against human OVCAR8 cells assessed as cell growth at 10 uM after 48 hrs by sulforhodamine B assay relative to control; conditions: OVCAR-8, 48 h, read-out: Activity
RXF 393 = experiment: Cytotoxicity against human RXF393 cells assessed as cell growth at 100 uM after 48 hrs by sulforhodamine B assay relative to control; conditions: RXF 393, 48 h, read-out: Activity
IGROV-1 [14] = experiment: Cytotoxicity against human IGROV1 cells assessed as growth inhibition after 48 hrs by sulforhodamine B assay; conditions: IGROV-1, 48 h
OVCAR-4 [15] = experiment: Cytotoxicity against human OVCAR4 cells assessed as growth inhibition after 48 hrs by sulforhodamine B assay; conditions: OVCAR-4, 48 h
IGROV-1 [16] = experiment: Cytotoxicity against human IGROV1 cells assessed as cell growth at 0.1 uM after 48 hrs by sulforhodamine B assay relative to control; conditions: IGROV-1, 48 h, read-out: Activity
T47D = experiment: Cytotoxicity against human T47D cells assessed as cell growth at 100 uM after 48 hrs by sulforhodamine B assay relative to control; conditions: read-out: Activity
SW-620 = experiment: Cytotoxicity against human SW620 cells assessed as cell growth at 10 uM after 48 hrs by sulforhodamine B assay relative to control; conditions: SW-620, 48 h, read-out: Activity
NCI/ADR-RES = experiment: Cytotoxicity against human NCI/ADR-RES cells assessed as cell growth at 10 uM after 48 hrs by sulforhodamine B assay relative to control; conditions: read-out: Activity
CCRF-CEM = experiment: Cytotoxicity against human CCRF-CEM cells assessed as growth inhibition after 48 hrs by sulforhodamine B assay
MDA-MB-435 [17] = experiment: Cytotoxicity against human MDA-MB-435 cells assessed as cell growth at 0.1 uM after 48 hrs by sulforhodamine B assay relative to control; conditions: MDA-MB-435, 48 h, read-out: Activity

COc1cc(-c2cc(/C=C/C(=O)c3ccc(N)cc3)[nH]n2)cc(OC)c1OC
growth at 0.01 µM (SR): 92%
growth at 100 µM (SK-OV-3 [1]): -98%
growth at 0.1 µM (COLO 205): 100%
growth at 10 µM (HT-29): -38%
growth at 1 µM (UO-31): 71%
growth at 1 µM (UACC-62 [2]): 86%
growth at 10 µM (SN12C): -45%
growth at 10 µM (MDA-MB-435 [3]): -86%
growth at 1 µM (OVCAR-4 [4]): 62%
growth at 10 µM (NCI-H23): -19%
growth at 100 µM (OVCAR-3 [5]): -93%
growth at 0.01 µM (OVCAR-8 [6]): 100%
growth at 0.1 µM (MDA-MB-231): 91%
growth at 10 µM (UACC-62 [7]): -69%
GI50 (OVCAR-3 [8]): 1.57 µM
LC50 (OVCAR-3 [8]): 7.26 µM
TGI (OVCAR-3 [8]): 3.37 µM
growth at 0.1 µM (SNB-19): 94%
GI50 (K562): 0.72 µM
LC50 (concentration killing 50% of cells) (K562): > 100 µM
TGI (K562): 23.6 µM
growth at 0.01 µM (Hs-578T [9]): 95%
growth at 100 µM (HCC 2998): -91%
growth at 100 µM (BT-549): -97%
GI50 (Hs-578T [10]): 4.33 µM
LC50 (Hs-578T [10]): > 100 µM
TGI (Hs-578T [10]): > 100 µM
growth at 1 µM (TK-10): 102%
growth at 0.1 µM (OVCAR-4 [11]): 105%
growth at 10 µM (NCI-H460): -32%
growth at 10 µM (M14): -64%
growth at 0.01 µM (SK-OV-3 [12]): 82%
growth at 10 µM (OVCAR-8 [13]): -1%
growth at 100 µM (RXF 393): -86%
GI50 (IGROV-1 [14]): 3.2 µM
LC50 (IGROV-1 [14]): > 100 µM
TGI (IGROV-1 [14]): 10.5 µM
GI50 (OVCAR-4 [15]): 1.4 µM
LC50 (OVCAR-4 [15]): 23.7 µM
TGI (OVCAR-4 [15]): 5.44 µM
growth at 0.1 µM (IGROV-1 [16]): 108%
growth at 100 µM (T47D): -47%
growth at 10 µM (SW-620): -20%
growth at 10 µM (NCI/ADR-RES): 15%
GI50 (CCRF-CEM): 0.55 µM
LC50 (concentration killing 50% of cells) (CCRF-CEM): > 100 µM
TGI (CCRF-CEM): 4.17 µM
growth at 0.1 µM (MDA-MB-435 [17]): 95%

COc1cc2c(cc1OC)C(=O)/C(=C/c1cc(-c3ccc4c(c3)OCO4)n[nH]1)C2
growth at 0.01 µM (SR): 97%
growth at 100 µM (SK-OV-3 [1]): -97%
growth at 0.1 µM (COLO 205): 105%
growth at 10 µM (HT-29): -77%
growth at 1 µM (UO-31): 68%
growth at 1 µM (UACC-62 [2]): 89%
growth at 10 µM (SN12C): -96%
growth at 10 µM (MDA-MB-435 [3]): -88%
growth at 1 µM (OVCAR-4 [4]): 57%
growth at 10 µM (NCI-H23): -63%
growth at 100 µM (OVCAR-3 [5]): -90%
growth at 0.01 µM (OVCAR-8 [6]): 98%
growth at 0.1 µM (MDA-MB-231): 99%
growth at 10 µM (UACC-62 [7]): -96%
GI50 (OVCAR-3 [8]): 1.41 µM
LC50 (OVCAR-3 [8]): 5.58 µM
TGI (OVCAR-3 [8]): 2.8 µM
growth at 0.1 µM (SNB-19): 98%
GI50 (K562): 1.59 µM
LC50 (concentration killing 50% of cells) (K562): > 100 µM
TGI (K562): > 100 µM
growth at 0.01 µM (Hs-578T [9]): 95%
growth at 100 µM (HCC 2998): -94%
growth at 100 µM (BT-549): -87%
GI50 (Hs-578T [10]): 2.61 µM
LC50 (Hs-578T [10]): > 100 µM
TGI (Hs-578T [10]): 8.08 µM
growth at 1 µM (TK-10): 106%
growth at 0.1 µM (OVCAR-4 [11]): 98%
growth at 10 µM (NCI-H460): -59%
growth at 10 µM (M14): -87%
growth at 0.01 µM (SK-OV-3 [12]): 102%
growth at 10 µM (OVCAR-8 [13]): -89%
growth at 100 µM (RXF 393): -92%
GI50 (IGROV-1 [14]): 1.89 µM
LC50 (IGROV-1 [14]): 14.3 µM
TGI (IGROV-1 [14]): 4.58 µM
GI50 (OVCAR-4 [15]): 1.11 µM
LC50 (OVCAR-4 [15]): 5 µM
TGI (OVCAR-4 [15]): 2.36 µM
growth at 0.1 µM (IGROV-1 [16]): 88%
growth at 100 µM (T47D): -93%
growth at 10 µM (SW-620): -56%
growth at 10 µM (NCI/ADR-RES): -17%
GI50 (CCRF-CEM): 1.14 µM
LC50 (concentration killing 50% of cells) (CCRF-CEM): > 100 µM
TGI (CCRF-CEM): 3.61 µM
growth at 0.1 µM (MDA-MB-435 [17]): 96%

— ChEMBL document CHEMBL4138123, “Design, synthesis and biological evaluation of novel pyrazolochalcones as potential modulators of PI3K/Akt/mTOR pathway and inducers of apoptosis in breast cancer cells” (Eur J Med Chem, 2017)
